The record followed here is US7838023B2, “Furoxan compounds, compositions and methods of use” (NitroMed, Inc., priority 2005, dated 2010).

Each structure is given as a SMILES string. Counter-ions that a name gives are not always drawn. Like-named read-outs stand apart in the source and are kept apart here.

In data set [1] the test system is Human coronary artery smooth muscle cells (SMC). The data set is described as follows: Vascular smooth muscle cell (SMC) antiproliferation assay. The class given is cell-based. The following applies: inhibition of proliferation, viable cell count ~68 hours after addition. The protocol: (§1) Human coronary artery smooth muscle cells (SMC) and endothelial cells (EC) were supplied by Cambrex Bio Science Walkersville, Inc. (Walkersville, MD). The smooth muscle cells were maintained in a basal medium, EBM (Cambrex Bio Science Walkersville, Inc), without phenol red and supplemented with 5% (v/v) fetal bovine serum (FBS), human recombinant epidermal growth factor (EGF), human recombinant fibroblast growth factor (FGF), bovine insulin, 50 μg/mL gentamicin sulfate, and 50 ng/mL amphotericin B (all obtained from Cambrex Bio Science Walkersville, Inc. as SMGM2 SingleQuots). The endothelial cells were grown in a modified EGM2-MV medium (Cambrex Bio Science Walkersville, Inc.), which had the same, phenol red-free, basal medium, EBM, as used in the smooth muscle cell medium, but were supplemented with 5% (v/v) fetal bovine serum (FBS), human recombinant epidermal growth factor (EGF), human recombinant fibroblast growth factor (FGF), vascular endothelial growth factor (VEGF), recombinant insulin-like growth factor-1 (IGF-1), ascorbic acid, 50 μg/mL gentamicin sulfate, and 50 ng/mL amphotericin B (all supplied by Cambrex Bio Science Walkersville, Inc. as EGM2-MV SingleQuots). All cells were incubated under humidified 95% air-5% CO2 at 37° C.
(§2) For the SMC/EC Antiproliferation Assay, the cells were seeded at 4×10^4 viable cells in 2 mL of the appropriate medium per well of a Corning tissue culture 24 well plate (Corning, N.Y.). Stock solutions of the test compounds were prepared just prior to addition to the cells by dissolving in DMSO at a concentration 1000 times the highest concentration to be assayed. This stock solution was diluted, as required, with DMSO to the required concentration. On the same day the cells were seeded, but after they had attached and spread out (about 3 hr), each test compound in varying concentrations (2 μL of the diluted stock solutions) was added to four replicate wells (n=4) for each concentration. Control cultures received 2 μL of DMSO per well (n=4). On the following morning, the cultures were examined microscopically and their condition, including evidence of cytotoxicity, recorded. ˜68 hours after the addition of the test compound, the cultures were examined microscopically and the viable cells counted with a hemacytometer following trypsinization with 0.25% trypsin-1 mM EDTA. Trypan Blue dye exclusion was used to discriminate between viable and dead cells. The results are presented as % of the control viable cell count (mean±SEM) and are used to determine the IC50 for the inhibition of proliferation of vascular smooth muscle and endothelial cells.

For data set [2], the system named is Human coronary artery endothelial cells (EC). The data set can be described thus: Endothelial cell (EC) antiproliferation assay. Type of data set: cell-based. Particulars: inhibition of proliferation, viable cell count ~68 hours after addition. The procedure: as §1, §2
Where [3] appears, read: Homo sapiens, SMC strain 3033, read-out: SMC Strain 3033, IC50.
Setting [4] is: Homo sapiens, Endothelial cell, EC strain 3033, read-out: EC Strain 3033, IC50.

As a reminder, the IC50 is the midpoint of a concentration-inhibition curve. Turning to `O=S(=O)(c1ccccc1)c1c(OCCN(CCOc2no[n+]([O-])c2S(=O)(=O)c2ccccc2)CCOc2no[n+]([O-])c2S(=O)(=O)c2ccccc2)no[n+]1[O-]` [Example 1d, Ethanamine, 2-[[5-oxido-4-(phenylsulfonyl)-1,2,5-oxadiazol-3-yl]oxy]-N,N-bis[2-[[5-oxido-4-(phenylsulfonyl)-1,2,5-oxadiazol-3-yl]oxy]ethyl]-, 2-hydroxy-1,2,3-propanetricarboxylate], the IC50 was found to be 6 nM in data set [1] (setting [3]); 17 nM in data set [1] (Homo sapiens, SMC strain 5286, read-out: SMC Strain 5286, IC50); 8 nM in data set [1] (Homo sapiens, SMC strain 9557-1, read-out: SMC Strain 9557-1, IC50); 447 nM in data set [2] (setting [4]); 460 nM in data set [2] (Homo sapiens, Endothelial cell, EC strain 5675-1, read-out: EC Strain 5675-1, IC50).
With `O=S(=O)(c1ccccc1)c1c(OCCNCCOc2no[n+]([O-])c2S(=O)(=O)c2ccccc2)no[n+]1[O-]` [Example 2b, Ethanamine, 2-[[5-oxido-4-(phenylsulfonyl)-1,2,5-oxadiazol-3-yl]oxy]-N-[2-[[5-oxido-4-(phenylsulfonyl)-1,2,5-oxadiazol-3-yl]oxy]ethyl]-, 2-hydroxy-1,2,3-propanetricarboxylate (1:1) (salt)], the IC50 in data set [1] (setting [3]) is 71 nM; in data set [2] (setting [4]), 690 nM.
In the case of `O=S(=O)(c1ccccc1)c1c(OCC(COc2no[n+]([O-])c2S(=O)(=O)c2ccccc2)Oc2no[n+]([O-])c2S(=O)(=O)c2ccccc2)no[n+]1[O-]` [Example 4], the half-maximal inhibitory concentration (IC50) worked out at 13 nM in data set [1] (SMC strain 5286, read-out: SMC Strain 5286, IC50); 9 nM in data set [1] (SMC strain 9557-1, read-out: SMC Strain 9557-1, IC50); 346 nM in data set [2] (EC strain 3033, read-out: EC Strain 3033, IC50).
As usually defined, the melting point is the temperature of the solid-liquid transition. As to `O=S(=O)(c1ccccc1)c1c(OCCOc2no[n+]([O-])c2S(=O)(=O)c2ccccc2)no[n+]1[O-]` [Example 5], the melting point was 187 to 189 °C.
